# Laboratory results as given in patent publication US20120156139A1, “ISOTOPICALLY LABELED NEUROCHEMICAL AGENTS AND USES THEROF FOR DIAGNOSING CONDITIONS AND DISORDERS” (priority 2009, published 2012).
# Experiments:
# Type in all cases: physicochemical
# [1] = 13C T1 inversion recovery studies of L-DOPA, dopamine and partially deuterated dopamine; conditions: for T1 of C1 / T1 of C2 / T1 of C3: 13C at natural abundance, inversion recovery, 500 MHz scanner; for Elongation factor, T1 of C1 / Elongation factor, T1 of C2 / Elongation factor, T1 of C3: relative to dopamine HCl (A)
# Description: Inversion recovery studies were carried out on protonated L-DOPA and dopamine and partially deuterated dopamine a in order to determine the ^13C T1 relaxation times in these molecules. The inversion recovery studies were carried out on a 500 MHz scanner (Varian), equipped with a 5 mm double tuned ^13C/^1H probe. Carbon-13 signals were detected in these molecules at natural abundance. The number of transitions ranged between 300 to 400 per relaxation delay (t) with a total scanning time of 12 to 48 hours. Dopamine HCl and L-DOPA were obtained from Sigma-Aldrich (Israel). [1,1,2,2-D4]-Dopamine HCl, and [D3-ring, 2,2-D2]-Dopamine were obtained from Cambridge Isotope Laboratories (MA, USA).
# [2] = T1 of position 2 in [1,1,2,2-D4,2-13C]-choline at various magnetic field strengths and temperatures; conditions: for Liquid state T1 of position 2: DNP-enhanced liquid state sample, 14.1 T
# Description: The T1 of position 2 in [1,1,2,2-D4,2-^13C]-choline was further investigated at various magnetic field strengths and temperatures. The liquid state T1 was measured on a DNP-enhanced liquid state sample at 14.1 T at approx. 37° C. (T1=48±2 sec) and at higher temperatures of between about 40 to about 50° C. (T1=56±4 sec).
# In addition, thermal equilibrium T1 measurement was performed at 9.4 T at 37° C. (T1=41 sec). The low field T1 of [1,1,2,2-D4,2-^13C]-choline was estimated by placing the enhanced sample in the fringe field of an unshielded 14.1 T magnet (n=2). From this experiment it was concluded that the low field T1 is long (>40 s) and that the T1 of the deuterated methylene carbon in choline is less affected by field strength.
# [3] = 13C T1 inversion recovery studies of choline and deuterated cholines at 11.8 T; conditions: for Elongation factor, T1 of C1 / Elongation factor, T1 of C2: relative to choline Cl- (A)
# Description: The data in Table 2 were obtained using a series of inversion recovery studies at 11.8 T which were carried out in order to determine the ^13C T1 relaxation times of a deuterated choline molecule and of a partially deuterated choline molecule [1,1,2,2-D4]-choline Cr. The T1 of the trimethyl amine position in the fully deuterated choline molecule was 28 sec, which represented an approximate 8 fold elongation factor compared to the native choline molecule in which the trimethyl amine positions are protonated. Inversion recovery studies were carried out on a 500 MHz scanner (Varian), equipped with a 5 mm double tuned ^13C/^1H probe. Carbon-13 signals were detected in these molecules at natural abundance. The number of transitions ranged between 300 to 400 per relaxation delay (r) with a total scanning time of 12 to 67 hours due to a relaxation delay of 130 sec. The data were fitted to the standard inversion recovery equation. The possible effect of concentration on T1 was investigated in a concentration range of 20 mM to […], no significant effect of concentration on T1 was found in this concentration range. Choline Cl^− and [1,1,2,2-D4]-Choline CU were obtained from Sigma-Aldrich (Israel). Choline-D13 Br^− (fully deuterated) was obtained from Cambridge Isotope Laboratories (MA, USA).
# [4] = T1 values of additional deuterated compounds
# [5] = 13C at natural abundance, inversion recovery, 11.8 T
Structure (SMILES),T1 of C1 [1],T1 of C2 [1],T1 of C3 [1],"T1 of C1 [3, 5]","T1 of C2 [3, 5]",other results
"N[C@@H](Cc1ccc(O)c(O)c1)C(=O)O [L-DOPA (non deuterated), L-DOPA]",2.3 s,2.3 s,3.9 s,,,
"[2H]C([2H])(O)[13C]([2H])([2H])[N+](C)(C)C [[1,1,2,2-D4,2-^13C]-choline]",,,,,,"Thermal equilibrium T1 ([2]; 9.4 T, 37 °C): 41 s; Liquid state T1 of position 2 ([2]; about 40 to about 50 °C): 56 ± 4 s; Liquid state T1 of position 2 ([2]; approx. 37 °C): 48 ± 2 s; Low field T1 ([2]; enhanced sample in the fringe field of an unshielded 14.1 T magnet, n=2, estimated): > 40 s"
"Cl.[2H]C([2H])(N)C([2H])([2H])c1ccc(O)c(O)c1 [[1,1,2,2-D4]-dopamine HCl]",8.7 s,9.3 s,6.3 s,,,"Elongation factor, T1 of C1 [1]: 7.9; Elongation factor, T1 of C2 [1]: 9.3; Elongation factor, T1 of C3 [1]: 1.0"
"[2H]C([2H])(NC(=N)N)C([2H])([2H])C([2H])([2H])[C@]([2H])(N)C(=O)O [[2,3,3,4,4,5,5-D7]-arginine, [2,3,3,4,4,5,5-D7]-arginine: NH2C(NH)NHCD2CD2CD2CD(NH2)CO2H]",,,,,,"T1 of carbons at positions 2, 3, 4, and 5 [4]: ~8 s"
"Cl.[2H]c1c([2H])c(C([2H])([2H])CN)c([2H])c(O)c1O [[D3 ring,2,2-D2]-dopamine HCl]",1.0 s,4.4 s,5.4 s,,,"Elongation factor, T1 of C1 [1]: 1.0; Elongation factor, T1 of C2 [1]: 4.4; Elongation factor, T1 of C3 [1]: 0.8"
"[2H]c1c([2H])c([2H])c2c(C([2H])([2H])[C@]([2H])(N)C(=O)O)c[nH]c2c1[2H] [[D7]-L-tryptophan, [D7]-L-tryptophan: C6D4C(CD2-CD(NH2)COOH)CH—NH]",,,,,,"T1 of position 10 ([4]; dissolved in H2O and 15% D2O (54.5 mM), 11.8 T): ~13 s"
[2H]C([2H])(O)C([2H])([2H])[N+](C([2H])([2H])[2H])(C([2H])([2H])[2H])C([2H])([2H])[2H].[Br-] [[D13]-choline Br^−],,,,32.0 s,32.9 s,"T1 of the trimethyl amine position [3, 5]: 28 s; Elongation factor of T1 of the trimethyl amine position ([3]; compared to the native choline molecule with protonated trimethyl amine positions): ~8 fold; Elongation factor, T1 of C1 ([3]; 11.8 T): 6.2; Elongation factor, T1 of C2 ([3]; 11.8 T): 6.7"
Cl.NCCc1ccc(O)c(O)c1 [dopamine HCl],1.1 s,1.0 s,6.4 s,,,

# The next lines start with results.
T1 of C1 [1],T1 of C2 [1],T1 of C3 [1],"T1 of C1 [3, 5]","T1 of C2 [3, 5]",Structure (SMILES),other results
,,,29.1 s,34.9 s,"[2H]C([2H])(O)C([2H])([2H])[N+](C)(C)C.[Cl-] [[1,1,2,2-D4]-choline Cl^−]","Elongation factor, T1 of C1 ([3]; 11.8 T): 5.6; Elongation factor, T1 of C2 ([3]; 11.8 T): 7.1"
,,,5.2 s,4.9 s,C[N+](C)(C)CCO.[Cl-] [choline Cl^−],
